Results published in patent US20240254119A1 (THIRD HARMONIC BIO, INC., priority 2022, published 2024).

How the values were obtained:
[1] = tested on: KIT phosphorylation in M-07e cells; assay: Cell-based KIT phosphorylation in M-07e cells by pKIT ELISA; set-up: species or system human; conditions: SCF stimulation
Summary of the method: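 Serum-starved M-07e cells (1 × 10^6/mL, overnight) were treated with compounds (8-point 3-fold series from 1 uM) for 2 h at 37 °C, then stimulated with 100 ng/mL SCF for 5 min. Lysate phospho-KIT was captured on anti-phospho-CD117 plates, detected with anti-pY-HRP, and read at 450 nm against a pc-KIT standard curve.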

Caco-2 cells = assay: Caco-2 permeability assay; format: in vitro ADME; conditions: for Caco-2: Papp A-B: Caco-2, apical to basolateral
Description: Exemplary compounds were tested for cell permeability in Caco-2, MDCKII-MDR1 and MDCKII-BCRP cell lines with efflux transporter engagement inferred from the efflux ratios determined. Procedures and results are described below. […] This feature of certain compounds is in part due to efflux transporter engagement. See, for instance, exemplary such compounds included in data tables below.
The transport buffer in the study was HBSS with 10.0 mM HEPES at pH 7.40±0.05. Test compound was tested at 2.00 μM bi-directionally in duplicate. Digoxin was tested at 10.0 μM bi-directionally in duplicate, while nadolol and metoprolol were tested at 2.00 μM in A to B direction in duplicate. Final DMSO concentration was adjusted to less than 1%. The plate was incubated for 2 hours in CO2 incubator at 37±1° C., with 5% CO2 at saturated humidity without shaking. And all samples after mixed with acetonitrile containing internal standard were centrifuged at 3200×g for 10 min. For nadolol and metoprolol, 200 μL supernatant solution was diluted with 600 μL ultra-pure water for LC-MS/MS analysis. For digoxin and test compounds, 200 μL supernatant solution was diluted with 200 μL ultra-pure water for LC-MS/MS analysis. Concentrations of test and control compounds in starting solution, donor solution, and receiver solution were quantified by LC-MS/MS methodologies, using peak area ratio of analyte/internal standard.
After transport assay, lucifer yellow rejection assay was applied to determine the Caco-2 cell monolayer integrity.
[…] And permeation of lucifer yellow through the monolayer was measured to evaluate the cellular integrity.
The apparent permeability coefficient Papp (cm/s) was calculated using the equation: Papp=(dCr/dt)×Vr/(A×C0), where dCr/dt is the cumulative concentration of compound in the receiver chamber as a function of time (μM/s); Vr is the solution volume in the receiver chamber (0.075 mL on the apical side, 0.25 mL on the basolateral side); A is the surface area for the transport, i.e. 0.0804 cm^2 for the area of the monolayer; C0 is the initial concentration in the donor chamber (μM).
The efflux ratio was calculated using the equation: Efflux Ratio=Papp (BA)/Papp(AB).
Percent recovery was calculated using the equation: % Solution Recovery=100×[(Vr×Cr)+(Vd×Cd)]/(Vd×C0), where Vd is the volume in the donor chambers (0.075 mL on the apical side, 0.25 mL on the basolateral side); Cd and Cr are the final concentrations of transport compound in donor and receiver chambers, respectively.

| SMILES | IC50 [1] [µM] | Caco-2: Efflux Ratio (Caco-2 cells) | Caco-2: Papp A-B (Caco-2 cells) | IC50 ([1]; Homo sapiens) [µM] |
| --- | --- | --- | --- | --- |
| Cc1ccc(-c2noc(C3CCC(F)C3)n2)cc1NC(=O)c1cnc2ccccn12 (racemic) [Compound I-319] | ≤ 0.05 | 0.83 | 16 10^−6 cm/s | – |
| Cc1ccc(-c2noc([C@H]3CCC(=O)N3)n2)cc1NC(=O)c1cnc2ccccn12 (racemic) [Compound I-327] | – | 102 | 0.27 10^−6 cm/s | – |
| Cc1ccc(-c2noc(C3(C)CC(F)(F)CN3)n2)cc1NC(=O)c1cnc2ccccn12 (racemic) [Compound I-328] | – | 1.02 | 18.2 10^−6 cm/s | – |
| Cc1ccc(-c2noc(CC(C)O)n2)cc1NC(=O)c1cnc2ccccn12 (racemic) [Compound I-363] | – | 2.55 | 8.85 10^−6 cm/s | – |
| Cc1ccc(-c2noc(C(C)O)n2)cc1NC(=O)c1cnc2ccccn12 (racemic) [Compound I-364] | – | 3.09 | 8.39 10^−6 cm/s | – |
| Cc1ccc(-c2noc(C3CCC3F)n2)cc1NC(=O)c1cnc2ccccn12 (racemic) [Compound I-376] | ≤ 0.05 | 0.85 | 19.5 10^−6 cm/s | – |
| Cc1ccc(-c2noc(C3CCC3F)n2)cc1NC(=O)c1cnc2ccccn12 (racemic) [Compound I-377] | ≤ 0.05 | – | – | – |
| Cc1ccc(-c2noc(C3CCS(=O)(=O)C3)n2)cc1NC(=O)c1cnc2ccccn12 (racemic) [Compound I-389] | – | 25.4 | 1.25 10^−6 cm/s | – |
| Cc1ccc(-c2noc(C3CCN3)n2)cc1NC(=O)c1cnc2ccccn12 (racemic) [Compound I-394] | – | 3.48 | 6.31 10^−6 cm/s | – |
| COc1ccn2c(C(=O)Nc3cc(-c4noc(CC(O)C(F)F)n4)ccc3C)cnc2c1 (single isomer, unassigned) [Compound I-76] | ≤ 0.05 | – | – | – |
| COC(=O)N1CC(c2nc(-c3ccc(C)c(NC(=O)c4cnc5cc(O[C@@H](C)CO)ccn45)c3)no2)C1 (single isomer, unassigned) [Compound I-217] | 0.05 to 0.5 | – | – | – |
| Cc1ccc(-c2noc(C(C)NS(C)(=O)=O)n2)cc1NC(=O)c1cnc2ccccn12 (single isomer, unassigned) [Compound I-237] | 0.05 to 0.5 | 57.6 | 0.50 10^−6 cm/s | – |
| Cc1ccc(-c2noc(C(C)NS(C)(=O)=O)n2)cc1NC(=O)c1cnc2ccccn12 (single isomer, unassigned) [Compound I-238] | 0.05 to 0.5 | – | – | – |
| Cc1ccc(-c2noc([C@H]3C[C@@H]3F)n2)cc1NC(=O)c1cnc2cc(COCC(C)(C)O)ccn12 [Compound I-71, N-[5-[5-[(1R,2S)-2-fluorocyclopropyl]-1,2,4-oxadiazol-3-yl]-2-methyl-phenyl]-7-[(2-hydroxy-2-methyl-propoxy)methyl]imidazo[1,2-a]pyridine-3-carboxamide] | – | – | – | ≤ 0.05 |
| COCCOCc1ccn2c(C(=O)Nc3cc(-c4noc([C@H]5C[C@@H]5F)n4)ccc3C)cnc2c1 [Compound I-84] | ≤ 0.05 | 1.8 | 11.8 10^−6 cm/s | – |
| Cc1ccc(-c2noc([C@H]3C[C@@H]3F)n2)cc1NC(=O)c1cnc2cc(OC(F)(F)F)ccn12 [Compound I-87] | ≤ 0.05 | 0.66 | 7.81 10^−6 cm/s | – |
| Cc1ccc(-c2noc([C@H]3C[C@@H]3F)n2)cc1NC(=O)c1cnc2cc(OC(C)C)ccn12 [Compound I-88] | ≤ 0.05 | 0.79 | 6.24 10^−6 cm/s | – |
| COc1ccn2c(C(=O)Nc3cc(-c4noc(CC5CC(F)(F)C5)n4)ccc3C)cnc2c1 [Compound I-91] | ≤ 0.05 | – | – | – |
| CCOc1ccn2c(C(=O)Nc3cc(-c4noc([C@H]5C[C@@H]5F)n4)ccc3C)cnc2c1 [Compound I-93] | ≤ 0.05 | – | – | – |
| COc1ccn2c(C(=O)Nc3cc(-c4noc(C[C@H](C)O)n4)ccc3C)cnc2c1 [Compound I-94] | ≤ 0.05 | – | – | – |
| COc1ccn2c(C(=O)Nc3cc(-c4noc(C5CC(F)(F)C5)n4)ccc3C)cnc2c1 [Compound I-96] | ≤ 0.05 | – | – | – |
| Cc1ccc(-c2noc([C@H]3C[C@@H]3F)n2)cc1NC(=O)c1cnn2ccccc12 [Compound I-109] | ≤ 0.05 | – | – | – |
| Cc1ccc(-c2noc(CC(O)C(F)F)n2)cc1NC(=O)c1cnc2ccccn12 (stereo not drawn) [Compound I-114] | ≤ 0.05 | 4.4 | 6.74 10^−6 cm/s | – |

| SMILES | IC50 [1] [µM] | Caco-2: Efflux Ratio (Caco-2 cells) | Caco-2: Papp A-B (Caco-2 cells) | IC50 ([1]; Homo sapiens) [µM] |
| --- | --- | --- | --- | --- |
| COc1ccc2ncc(C(=O)Nc3cc(-c4noc(C[C@@H](C)O)n4)ccc3C)n2c1 [Compound I-119] | ≤ 0.05 | – | – | – |
| Cc1ccc(-c2noc(CC(O)C(F)F)n2)cc1NC(=O)c1cnc2ccccn12 (stereo not drawn) [Compound I-122] | ≤ 0.05 | – | – | – |
| Cc1ccc(-c2noc(CC3CC(F)(F)C3)n2)cc1NC(=O)c1cnc2ccccn12 [Compound I-124] | ≤ 0.05 | – | – | – |
| Cc1ccc(-c2noc(CC3CC3(F)F)n2)cc1NC(=O)c1cnc2ccccn12 (stereo not drawn) [Compound I-125] | ≤ 0.05 | – | – | – |
| Cc1nc(-c2ccc(C)c(NC(=O)c3cnc4cc(C(F)F)ccn34)c2)no1 [Compound I-134] | 0.5 to 5 | – | – | – |
| Cc1ccc(-c2noc(C3COC3)n2)cc1NC(=O)c1cnc2ccccn12 [Compound I-138] | ≤ 0.05 | 1.42 | 16.6 10^−6 cm/s | – |
| Cc1nc(-c2ccc(Cl)c(NC(=O)c3cnc4ccccn34)c2)no1 [Compound I-172] | 0.5 to 5 | 0.49 | 12.9 10^−6 cm/s | – |
| COC(=O)N1CC(c2nc(-c3ccc(C)c(NC(=O)c4cnn5cc(C#N)ccc45)c3)no2)C1 [Compound I-204] | 0.05 to 0.5 | – | – | – |
| Cc1nc(-c2ccc(C)c(NC(=O)c3cnc4ccc(N(C)C)cn34)c2)no1 [Compound I-205] | ≤ 0.05 | – | – | – |
| Cc1ccc(-c2cnc(N3CC(F)(F)C3)o2)cc1NC(=O)c1cnc2ccccn12 [Compound I-213] | 0.05 to 0.5 | – | – | – |
| COCCS(=O)(=O)N1CC(c2nc(-c3ccc(C)c(NC(=O)c4cnc5ccccn45)c3)no2)C1 [Compound I-235] | 0.05 to 0.5 | – | – | – |
| COC(=O)N1CC(c2nc(-c3ccc(C)c(NC(=O)c4cnc5cc(OC[C@H](C)O)ccn45)c3)no2)C1 [Compound I-262] | ≤ 0.05 | – | – | – |
| COC(=O)N1CC(c2nc(-c3ccc(C)c(NC(=O)c4cnc5cc(OC[C@@H](C)O)ccn45)c3)no2)C1 [Compound I-263] | ≤ 0.05 | – | – | – |
| Cc1ccc(-c2noc([C@@H](C)O)n2)cc1NC(=O)c1cnc2ccccn12 [Compound I-270] | – | 3.35 | 8.5 10^−6 cm/s | – |
| CNC(=O)N1CC(c2nc(-c3ccc(C)c(NC(=O)c4cnc5ccccn45)c3)no2)C1 [Compound I-282] | – | 152 | 0.14 10^−6 cm/s | – |
| Cc1ccc(-c2noc(C3CN(C(=O)CO)C3)n2)cc1NC(=O)c1cnc2ccccn12 [Compound I-287] | – | 135 | 0.13 10^−6 cm/s | – |
| CCCNc1ccn2c(C(=O)Nc3cc(-c4noc([C@H]5C[C@@H]5F)n4)ccc3C)cnc2c1 [Compound I-304] | – | 0.92 | 4.31 10^−6 cm/s | – |
| Cc1ccc(-c2noc(C3(N)CC4(CC(F)(F)C4)C3)n2)cc1NC(=O)c1cnc2ccccn12 [Compound I-307] | – | 1.79 | 9.28 10^−6 cm/s | – |
| Cc1ccc(-c2noc(CO)n2)cc1NC(=O)c1cnc2ccccn12 [Compound I-337] | ≤ 0.05 | – | – | – |
| Cc1ccc(-c2noc(C3CC4(CCC4)C3)n2)cc1NC(=O)c1cnc2ccccn12 [Compound I-367] | ≤ 0.05 | – | – | – |
| Cc1ccc(-c2noc(C3CC(OCCF)C3)n2)cc1NC(=O)c1cnc2ccccn12 (stereo not drawn) [Compound I-369] | – | 0.77 | 20.6 10^−6 cm/s | – |
| Cc1ccc(-c2noc(C3(O)CC(F)(F)C3)n2)cc1NC(=O)c1cnc2ccccn12 [Compound I-380] | – | 3.45 | 7.5 10^−6 cm/s | – |
| Cc1ccc(-c2noc([C@H]3C[C@@H]3F)n2)cc1NC(=O)c1cnc2ccc(C#N)cn12 [Compound I-384] | – | 0.90 | 16.5 10^−6 cm/s | – |
